Assay results taken from patent US8853424B2 (Japan Science and Technology Agency, priority 2008, dated 2014).

Columns and labels:
transglutaminase (TGase) = test: Measurement of TG (TGase inhibitory activity, monodansyl cadaverine / N,N-dimethylcasein fluorescence, FDSS 3000); format: biochemical
In short: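 Compound (1 μL of 10 mM stock) added to 0.1 mL reaction: 100 mM HEPES-NaOH pH 7.5, 1 mM CaCl2, 20 μM monodansyl cadaverine, 0.05 mg/mL N,N-dimethylcasein, 5 μg/mL TGase. Rate of fluorescence change at 340 nm measured; DMSO control set to 100; TG50 is the concentration halving activity.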

[1] = system: Truncated N-terminal huntington 150 Q-EGFP-Neuron 2a cells; test: Measurement of x-Fold (polyglutamine aggregation inhibitory activity); format: cell-based
Description: In the present invention, the polyglutamine aggregation inhibitory activity (x-Fold) can be measured, for example, by the method described in the Example.
The number of the aggregated cells, and the total number of cells were counted by Array Scan V T1 (manufactured by Cellomics, Pittuburg, USA), and the ratio of the aggregated cells to the total number of cells was determined (x-Fold). […]

[2] = TGase activity with compound (10 mM, 1 μL in 0.1 ml enzyme reaction solution), DMSO control taken as 100
[3] = TGase inhibitory activity value, Table 1
[4] = polyglutamine aggregation inhibitory activity, Table 1
[5] = ratio of aggregated cells to total number of cells, compound 20 μM, 20 hr, almost 1 without compound, smaller = stronger inhibition

SMILES	TGase activity remaining (% of DMSO control = 100) (transglutaminase (TGase); [2])	TGase activity remaining (% of DMSO control = 100) (transglutaminase (TGase); [3])	x-Fold [1, 4]	x-Fold [1, 5]	TGase activity remaining (% of DMSO control = 100) (transglutaminase (TGase); TGase inhibitory activity value, Table 1, listed as 3003)	x-Fold ([1]; polyglutamine aggregation inhibitory activity, Table 1, listed as 3003)	TGase activity remaining (% of DMSO control = 100) (transglutaminase (TGase); TGase inhibitory activity value, Table 1, listed as 3107)	x-Fold ([1]; polyglutamine aggregation inhibitory activity, Table 1, listed as 3107)	TGase activity remaining (% of DMSO control = 100) (transglutaminase (TGase); TGase inhibitory activity value, Table 1, listed as 4130)	x-Fold ([1]; polyglutamine aggregation inhibitory activity, Table 1, listed as 4130)
NCCOB(c1ccccc1)c1ccc(COCc2ccc(B(OCCN)c3ccc(COCc4ccc(B(OCCN)c5ccccc5)cc4)cc3)cc2)cc1 [Example 189, bis((4,4′-phenylaminoethoxyboryl)benzyloxybenzyl)aminoethoxyborane]	119	119	0.94	0.94						
FC(F)(F)c1ccc(C(OB(c2ccccc2)c2ccc(COCc3ccc(B(OC(c4ccc(C(F)(F)F)cc4)c4ccccn4)c4ccc(COCc5ccc(B(OC(c6ccc(C(F)(F)F)cc6)c6ccccn6)c6ccccc6)cc5)cc4)cc3)cc2)c2ccccn2)cc1 (centres unmarked) [Example 192, bis((4,4′-phenyl 2-pyridyl-4-trifluoromethylphenylmethoxyboryl)benzyloxybenzyl) 2-pyridyl-4-trifluoromethyl phenylmethoxyborane]	102	102	0.95	0.95						
NC(=O)C1NCCNC1C(=O)OB(c1ccccc1)c1ccccc1 (centres unmarked) [Example 193, diphenyl(2-piperazine-3-carboxyamide-carboxy)borane]	92	92	1.03	1.03						
CSCCC(N)C(=O)OB(c1ccccc1)c1ccccc1 (centres unmarked) [Example 194, diphenyl(methionate-O,N)borane]	106	106	1.03	1.03						
c1ccc(B(ON2CCCCC2)c2cccc(Oc3cccc(B(ON4CCCCC4)c4ccccc4)c3)c2)cc1 [Example 195, di(phenyl 3-piperidinooxyborylphenyl)ether]	115	115	0.77	0.77						
c1ccc(B2OCCN3CCN(CCOB(c4ccccc4)c4ccc(cc4)Oc4ccc2cc4)CC3)cc1 [Example 196, 4,4′-(phenylpiperazino-O,O-ethoxyboryl)phenylether]	117	117	0.90	0.90						
CN(C)CCOB(c1ccccc1)c1ccc(COCc2ccc(B(OCCN(C)C)c3ccccc3)cc2)cc1 [Example 198, bis(4,4′-(phenyldimethylaminoethoxyboryl)benzyl)ether]	28			0.8	28	0.8				
c1ccc(CNCCOB(c2ccccc2)c2cccc(COCc3cccc(B(OCCNCc4ccccc4)c4ccccc4)c3)c2)cc1 [Example 199, bis(3,3′-(phenylbenzylaminoethoxyboryl)benzyl)ether]	3	3	0.90	0.90						
Cc1c(Cl)cccc1B(O)c1cccc(Cl)c1C [Example 200, di(3-chloro-2-methylphenyl)borinic acid]	100			0.92						
Cc1ccc(B(O)c2ccc(Oc3ccc(B(O)c4ccc(C)c(Cl)c4)cc3)cc2)cc1Cl [Example 201, 4,4′-di((3-chloro-4-methylphenyl 2-hydroxyboryl)phenyl)ether]	99			0.57						
c1ccc(B(OCc2ccccn2)c2cccc3ccccc23)cc1 [Example 202, phenyl naphthyl 2-pyridylmethylborinate]	91	91	0.94	0.94						
CN(C)CCOB(c1ccccc1)c1cccc2ccccc12 [Example 203, phenyl naphthyl dimethylaminoethylborinate]	97	97	0.97	0.97						
c1ccc(CNCCOB(c2ccccc2)c2cccc3ccccc23)cc1 [Example 204, phenyl naphthyl benzylaminoethylborinate]	61	61	0.79	0.79						
NC(COB(c1ccccc1)c1ccc(COCc2ccc(B(OCC(N)Cc3ccccc3)c3ccccc3)cc2)cc1)Cc1ccccc1 (centres unmarked) [Example 205, bis(4,4′-(phenyl 2-amino-2-benzylethoxyboryl)benzyl)ether]	47	47	0.80	0.80						
CN(C)CCOB(c1ccccc1)c1cccc(COCc2cccc(B(OCCN(C)C)c3ccccc3)c2)c1 [Example 206, bis(3,3′-(phenyldimethylaminoethoxyboryl)benzyl)ether]	34			1.14			34	1.14		
Cc1ccc(B(OC(CN)c2ccccc2)c2ccc(C)c(Cl)c2)cc1Cl (centres unmarked) [Example 209, di(3-chloro-4-methylphenyl)1-phenyl 2-aminoethylborinate]	1	1	0.98	0.98						
c1ccc(B(OB(c2ccccc2)c2ccccc2)c2ccccc2)cc1 [Example 217, diphenylborinic acid anhydride]	118	118	0.94	0.94						
O=C(OB(c1ccccc1)c1ccccc1)c1ccccn1 [Example 218, diphenyl(picolinate-O,N)borane]	90	90	0.97	0.97						
Nc1ccccc1C(=O)OB(c1ccccc1)c1ccccc1 [Example 219, diphenyl(2-aminophenyl carboxylate-O,N)borane]	91	91	0.88	0.88						
Cc1ccc(B(OC(=O)c2ccccn2)c2ccc(C)c(Cl)c2)cc1Cl [Example 221, di(3-chloro-4-methylphenyl)(2-pyridine carboxylate-O,N)borane]	73			0.94						
NC(c1ccccc1)C(OB(c1ccccc1)c1ccccc1)c1ccccc1 (centres unmarked) [Example 224, diphenyl 1-(2-aminobenzyl) 1-phenylmethylborinate]	112	112	0.89	0.89						
CCCCC(N)C(=O)OB(c1ccccc1)c1ccccc1 (centres unmarked) [Example 226, diphenyl(2-aminohexanecarboxylate-O,N)borane]	97	97	0.94	0.94						
CCCCC(N)C(=O)OB(c1ccc(C)c(Cl)c1)c1ccc(C)c(Cl)c1 (centres unmarked) [Example 227, di(3-chloro-4-methylphenyl)(norloysinate-O,N)borane]	110			0.99					110	0.99
